From patent US6969590B2, “Use of a polypeptide for treatment of pruritus in animals” (Zengen, Inc., priority 2001, dated 2005)

Key:
[1] = system: inflammation induced in the hind paw; assay: Kappa carrageenan-induced hind paw inflammation, spinal cord intact or transected; format: in vivo, BALB/c mice; conditions: for inhibition of hind paw inflammation: central administration, spinal cord intact mice
Protocol: Because surgical dissection of trigeminal structures that innervate the ear of the mouse is very difficult, tests to learn whether descending neural pathways are essential to the anti-inflammatory activity of centrally administered α-MSH peptides were performed in mice with inflammation induced in a hind paw. In these experiments, each animal was anesthetized with pentobarbital sodium solution as above. Baseline footpad thickness of both hind paws was measured with a spring-loaded micrometer (Swiss Precision Instruments, Los Angeles, Calif.). Paw thickness was expressed in units of 10^−3 cm; average thickness of unstimulated paws was 171.5×10^−3 cm across shipments of animals. Kappa carrageenan (Sigma) dissolved in saline (0.05%, 20 μl) was injected (28 gauge allergy test syringe) into one footpad, and saline (20 μl) was injected into the other. For the analyses, the increase in thickness of the control saline-injected paw of each animal was subtracted from that of the carrageenan-injected paw, to eliminate the influence of mechanical injury and volume of the injected fluid. To be certain that mice with severed spinal cords can react to anti-inflammatory agents, prednisolone (2.5 mg/mouse (IP injection)) was administered to 10 mice with spinal transection and inflammation induced by carrageenan. Treatment with the locally acting steroid reduced swelling up to 29% (average, relative to saline controls) at 4.5 h. after carrageenan.
However, a standardized crushing of lumbar vertebrae with a hemostat was effective in severing the cord; no deaths were caused by this treatment. […] The experiments were limited to 4.5 h to reduce problems of bowel and bladder dysfunction. Immediately after the 4.5 h measurements all mice were killed with an overdose of sodium pentobarbital.
Because of the size of the experiments and the requirement for several shipments of animals over time, several experiments were performed, each with complete treatment and control groups drawn from the same shipment of mice. Omnibus analysis of variance techniques (Dynastat, Washington, D.C.) were used to test overall differences among group means. Tukey's protected t test was used to compare individual means. Probability values of <0.05 were considered significant.

TNF-α = TNF-α production by activated N9 microglia; format: cell-based, murine; conditions: microglia stimulated with LPS+IFN-γ for 24 hr, micromolar concentrations
Protocol: (§1) The N9 clone of murine microglial cells was obtained by immortalization of embryonic brain cultures with the 3RV retrovirus carrying an activated v-myconcogene. N9 cells were cultured in T-75-cm^2 culture flasks (Corning, Cambridge, Mass.) and maintained at 37° C. in a humidified incubator under 5% CO2 atmosphere in RPMI 1640 supplemented with 2 mM L-glutamine, 50 U/mL penicillin G, 50 μg/mL streptomycin sulfate (GIBCO-BBL, Paisley, UK), and 10% heat-inactivated fetal bovine serum (FBS, Hyclone Lab, Inc., Logan, Utah) until experiments were performed. Cells were used between the first and the tenth passage.
(§2) Sub-confluent microglial cells were washed twice with phosphate-buffered saline (PBS) and incubated with trypsin 0.025% and ethylenediaminetetraacetate (EDTA) 0.02% without calcium and magnesium for 3 min. at 37° C. to detach the cells from the culture flask. Cells were then resuspended in medium and incubated in 24-well tissue-culture plates at a concentration of 2×10^5 cells/mL for 16 h in a humidified incubator (37° C., 5% CO2). Growth medium was removed and cell monolayers were stimulated with 10 ng/mL lipopolysaccharide (LPS, from Escherichia coli 055:B5, Sigma Chemical Co., St. Louis, Mo.) plus 1 U/ml, murine IFN-γ (Sigma). To test effects of melanocortin peptides, concentrations (1, 10, 25, 50 and 100 μM) of α-MSH (1-13), α-MSH (11-13), and ACTH (1-24) (Sigma) were dissolved in medium and added to wells 10 min before treatment with LPS+IFN-γ. […] Viability of cells was assessed by trypan blue exclusion for each experimental condition; it was consistently >98%. […]
(§3) TNF-α bioactivity was measured in supernatants of cell cultures by standard cytotoxicity assay using L929 cells and recombinant human TNF-α (Sigma) as standard. […] IL-6 was measured using a commercial murine enzyme-linked immunosorbent assay (ELISA: RPN 2714, Amersham, Little Chalfont, UK).
(§4) Effects of melanocortin peptides on cytokine and NO production were evaluated by repeated measures analysis of variance followed by Dunnet's test for specific comparisons. […]

NO2^− = assay: Nitrite (NO) production by activated N9 microglia; format: cell-based, murine; conditions: microglia stimulated with LPS+IFN-γ for 24 hr, micromolar concentrations
Protocol: as §1, §2
NO is rapidly oxidized to nitrite (NO2) in culture medium, and nitrite concentration is an indicator of NO production. […] Samples were incubated at room temperature for 10 min and absorbency was measured at 540 nm with the use of a microplate reader. Nitrite concentrations were calculated using a sodium nitrite standard curve.
as §4

IL-6 = IL-6 production by activated N9 microglia; format: cell-based, murine; conditions: microglia stimulated with LPS+IFN-γ for 24 hr, micromolar concentrations
Protocol: as §1, §2, §3, §4

SYSMEHFRWGKPV [α-MSH (1-13)]
inhibition of hind paw inflammation ([1]; 3 h): 57%
inhibition of hind paw inflammation ([1]; 4.5 h): 29%
anti-inflammatory effect after spinal cord transection ([1]; centrally administered): significantly reduced the anti-inflammatory effect
anti-inflammatory effect after spinal cord transection ([1]; given intraperitoneally): significant, although smaller, inhibitory effect later in the period
reduction of production of TNF-α (TNF-α): 43%
reduction of production of NO2^− (NO2^−): 42%
reduction of production of IL-6 (IL-6): 31%
